Assay results from patent US20260325533A1, “CDK INHIBITOR COMPOUNDS” (ALEKSIA THERAPEUTICS, INC., priority 2023, published 2026).
pIC50: −log10 of the molar value. Where two headings read alike, the source gives them in different places.

What was measured:
Format in all cases: biochemical
CDK2/CCNE1 = CDK2/CCNE1 (Homo sapiens, UniProt P24941); experiment: CDK2 homogeneous time-resolved fluorescence (HTRF) kinase assay; settings: CDK2/CCNE
In short: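 IC50 derived from 11-point, half-log dilutions (usually top 10 μM) of compound, 1% DMSO. Kinase (3 nM CDK2/CCNE1) was preincubated with compound 20 min, then phosphorylated 50 nM ULight-4E-BP1 peptide at 1 mM ATP for 60 min, 23 °C. Europium-antibody TR-FRET read after EDTA stop.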

CDK6/CCND1 = CDK6/CCND1 (Homo sapiens, UniProt Q00534); experiment: CDK6 homogeneous time-resolved fluorescence (HTRF) kinase assay; settings: CDK6/CCND
In short: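 Assay conditions: HEPES buffer containing 10 mM MgCl2, 1 mM EGTA, 2 mM DTT, 0.01% Tween 20; 1 nM CDK6/CCND1, 50 nM peptide substrate, 1 mM ATP. Detection after 60 min reaction used 2 nM europium antibody with 340 nm excitation. Potency fitted from half-log series, 11 points.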

CDK4/CCND3 = CDK4/CCND3 (Homo sapiens, UniProt P11802); experiment: CDK4 homogeneous time-resolved fluorescence (HTRF) kinase assay; settings: CDK4/CCND
In short: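 TR-FRET read (665 nm, or 665/615 ratio) of 4E-BP1 Thr37/46 phosphorylation by 1.5 nM CDK4/CCND3 at 1 mM ATP, 50 nM ULight peptide, 1% DMSO. Reaction ran 60 min at 23 °C after 20 min compound–enzyme preincubation. IC50 from 11-point half-log dilutions, top 10 μM.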

CDK1/CCNB1 = CDK1/CCNB1 (Homo sapiens, UniProt P06493); experiment: CDK1 homogeneous time-resolved fluorescence (HTRF) kinase assay; settings: CDK1/CCNB
In short: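 0.5 nM CDK1/CCNB1 was preincubated 20 min at 23 °C with compound in HEPES pH-unspecified buffer (MgCl2, EGTA, DTT, Tween 20), then reacted 60 min with 1 mM ATP and 50 nM ULight-4E-BP1 (Thr37/46) peptide. EDTA-stopped reactions were detected with 2 nM Eu-anti-phospho antibody; IC50 from 11-point half-log titrations.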

[1] = >250 nM marked x, read-out: CDK1/CCNB IC50 >250 nM
[2] = 25-250 nM marked x, read-out: CDK2/CCNE IC50 25-250 nM
[3] = >250 nM marked x, read-out: CDK6/CCND IC50 >250 nM
[4] = >250 nM marked x, read-out: CDK4/CCND IC50 >250 nM
[5] = <25 nM, read-out: CDK2/CCNE IC50, <25 nM
[6] = 25-250 nM, read-out: CDK4/CCND IC50, 25-250 nM
[7] = x = IC50 25-250 nM, read-out: CDK2/CCNE IC50 (25-250 nM)
[8] = x = IC50 >250 nM, read-out: CDK6/CCND IC50 (>250 nM column)
[9] = x = IC50 >250 nM, read-out: CDK4/CCND IC50 (>250 nM column)
[10] = x = IC50 >250 nM, read-out: CDK1/CCNB IC50 (>250 nM column)
[11] = 25-250 nM, read-out: CDK2/CCNE IC50, 25-250 nM
[12] = >250 nM, 1 mM ATP, read-out: CDK6/CCND IC50, >250 nM
[13] = >250 nM, read-out: CDK4/CCND IC50, >250 nM
[14] = >250 nM, read-out: CDK1/CCNB IC50 >250 nM

Chain of CDK1/CCNB1 (P06493 whole entry): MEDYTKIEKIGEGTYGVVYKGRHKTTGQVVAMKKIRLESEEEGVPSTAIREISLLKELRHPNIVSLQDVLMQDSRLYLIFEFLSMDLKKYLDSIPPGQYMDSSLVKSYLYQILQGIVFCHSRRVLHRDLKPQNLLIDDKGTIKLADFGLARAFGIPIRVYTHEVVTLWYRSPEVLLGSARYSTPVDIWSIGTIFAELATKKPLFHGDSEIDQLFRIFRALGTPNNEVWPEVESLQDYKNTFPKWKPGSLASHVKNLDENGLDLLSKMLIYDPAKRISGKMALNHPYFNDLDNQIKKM
Chain of CDK1/CCNB1 (P14635 whole entry partner): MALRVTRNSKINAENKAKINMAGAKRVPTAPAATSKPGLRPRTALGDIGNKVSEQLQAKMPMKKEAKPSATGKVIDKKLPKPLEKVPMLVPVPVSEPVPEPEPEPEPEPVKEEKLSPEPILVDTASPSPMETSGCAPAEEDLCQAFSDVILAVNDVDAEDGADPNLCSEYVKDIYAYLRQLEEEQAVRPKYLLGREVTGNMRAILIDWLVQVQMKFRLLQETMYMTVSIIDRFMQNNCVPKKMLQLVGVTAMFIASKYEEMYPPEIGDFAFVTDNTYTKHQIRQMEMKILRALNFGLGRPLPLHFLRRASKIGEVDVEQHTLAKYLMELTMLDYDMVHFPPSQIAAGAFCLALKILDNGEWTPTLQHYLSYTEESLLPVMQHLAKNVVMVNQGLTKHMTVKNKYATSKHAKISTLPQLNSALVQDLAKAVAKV
Chain of CDK4/CCND3 (P11802 whole entry): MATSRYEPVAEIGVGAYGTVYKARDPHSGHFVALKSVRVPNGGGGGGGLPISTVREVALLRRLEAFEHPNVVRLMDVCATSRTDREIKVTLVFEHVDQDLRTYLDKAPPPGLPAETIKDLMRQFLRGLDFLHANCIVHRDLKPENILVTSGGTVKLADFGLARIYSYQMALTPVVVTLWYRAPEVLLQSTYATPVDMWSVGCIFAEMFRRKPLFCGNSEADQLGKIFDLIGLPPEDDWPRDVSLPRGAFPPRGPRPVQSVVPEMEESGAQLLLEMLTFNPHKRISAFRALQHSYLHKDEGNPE
Chain of CDK4/CCND3 (P30281 whole entry partner): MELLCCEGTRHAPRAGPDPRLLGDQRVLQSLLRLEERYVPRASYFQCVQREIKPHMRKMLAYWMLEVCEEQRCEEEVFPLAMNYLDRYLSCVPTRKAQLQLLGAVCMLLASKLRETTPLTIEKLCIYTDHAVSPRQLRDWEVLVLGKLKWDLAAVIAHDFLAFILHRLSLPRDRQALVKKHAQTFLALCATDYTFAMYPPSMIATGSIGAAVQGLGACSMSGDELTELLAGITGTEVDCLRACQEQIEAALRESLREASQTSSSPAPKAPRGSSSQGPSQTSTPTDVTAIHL
Chain of CDK6/CCND1 (Q00534 whole entry): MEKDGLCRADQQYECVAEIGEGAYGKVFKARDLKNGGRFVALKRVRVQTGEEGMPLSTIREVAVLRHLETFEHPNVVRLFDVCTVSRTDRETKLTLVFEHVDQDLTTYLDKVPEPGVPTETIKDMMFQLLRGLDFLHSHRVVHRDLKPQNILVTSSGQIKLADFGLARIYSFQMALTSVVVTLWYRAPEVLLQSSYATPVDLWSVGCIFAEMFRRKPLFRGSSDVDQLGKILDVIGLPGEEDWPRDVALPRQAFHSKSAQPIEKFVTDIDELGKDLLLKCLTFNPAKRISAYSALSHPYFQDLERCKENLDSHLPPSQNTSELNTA
Chain of CDK6/CCND1 (P24385 whole entry partner): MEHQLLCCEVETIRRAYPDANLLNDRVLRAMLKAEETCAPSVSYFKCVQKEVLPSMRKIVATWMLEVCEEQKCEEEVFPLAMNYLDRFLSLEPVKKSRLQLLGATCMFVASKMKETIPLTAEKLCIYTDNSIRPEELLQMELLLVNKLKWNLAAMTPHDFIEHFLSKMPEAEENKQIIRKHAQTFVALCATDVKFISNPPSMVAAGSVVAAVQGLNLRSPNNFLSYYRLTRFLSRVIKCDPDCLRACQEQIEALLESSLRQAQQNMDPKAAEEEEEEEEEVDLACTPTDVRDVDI

pIC50 (CDK1/CCNB1; [1]) | pIC50 (CDK2/CCNE1; [7]) | pIC50 (CDK6/CCND1; [8]) | pIC50 (CDK4/CCND3; [9]) | pIC50 (CDK1/CCNB1; [10]) | pIC50 (CDK6/CCND1; [12]) | pIC50 (CDK1/CCNB1; [14]) | Compound | other results
< 6.60 |  |  |  |  |  |  | CS(=O)(=O)c1ccc(Nc2cc3c(C#Cc4ccncc4)nccc3cn2)cc1 [Ex 138, N-(4-(methylsulfonyl)phenyl)-5-(pyridin-4-ylethynyl)-2,6-naphthyridin-3-amine] | pIC50 (CDK2/CCNE1; <25 nM, read-out: CDK2/CCNE IC50 <25 nM): > 7.60; pIC50 (CDK6/CCND1; 25-250 nM marked x, read-out: CDK6/CCND IC50 25-250 nM): 6.60 to 7.60; pIC50 (CDK4/CCND3; 25-250 nM marked x, read-out: CDK4/CCND IC50 25-250 nM): 6.60 to 7.60
< 6.60 |  |  |  |  |  |  | COc1c(-c2nccc3cnc(Nc4ccc(S(C)(=O)=O)cc4)cc23)ccc2[nH]ncc12 [Ex 220, 5-(4-methoxy-1H-indazol-5-yl)-N-(4-(methylsulfonyl)phenyl)-2,6-naphthyridin-3-amine] | pIC50 (CDK2/CCNE1; [2]): 6.60 to 7.60; pIC50 (CDK6/CCND1; [3]): < 6.60; pIC50 (CDK4/CCND3; [4]): < 6.60
 |  |  |  |  |  |  | Cc1c(-c2nccc3cnc(Nc4ccc(S(=O)(=O)NC5CCN(CCO)CC5)cc4)cc23)ccc2c1cnn2CC(C)(C)O [Ex 762, 4-((5-(1-(2-hydroxy-2-methylpropyl)-4-methyl-1H-indazol-5-yl)-2,6-naphthyridin-3-yl)amino)-N-(1-(2-hydroxyethyl)piperidin-4-yl)benzenesulfonamide] | pIC50 (CDK2/CCNE1; [5]): > 7.60; pIC50 (CDK6/CCND1; 25-250 nM, 1 mM ATP, read-out: CDK6/CCND IC50, 25-250 nM): 6.60 to 7.60; pIC50 (CDK4/CCND3; [6]): 6.60 to 7.60; pIC50 (CDK1/CCNB1; 25-250 nM, read-out: CDK1/CCNB IC50, 25-250 nM): 6.60 to 7.60
 | 6.60 to 7.60 | < 6.60 | < 6.60 | < 6.60 |  |  | CS(=O)(=O)c1ccc(Nc2cc3c(C#Cc4ccc5[nH]ncc5c4)nccc3cn2)cc1 [Ex 645, 5-((1H-indazol-5-yl)ethynyl)-N-(4-(methylsulfonyl)phenyl)-2,6-naphthyridin-3-amine] | 
 | 6.60 to 7.60 | < 6.60 | < 6.60 | < 6.60 |  |  | CS(=O)(=O)c1ccc(Nc2cc3c(C#Cc4ccc5[nH]c(=O)oc5c4)nccc3cn2)cc1 [Example 476, 6-((7-((4-(methylsulfonyl)phenyl)amino)-2,6-naphthyridin-1-yl)ethynyl)benzo[d]oxazol-2(3H)-one] | 
 | 6.60 to 7.60 | < 6.60 | < 6.60 | < 6.60 |  |  | CS(=O)(=O)c1ccc(Nc2cc3c(C#Cc4ccnc(C(F)F)c4)nccc3cn2)cc1 [Ex 529, 5-((2-(difluoromethyl)pyridin-4-yl)ethynyl)-N-(4-(methylsulfonyl)phenyl)-2,6-naphthyridin-3-amine] | 
 |  |  |  |  | < 6.60 | < 6.60 | COc1cc(OC)nc(NS(=O)(=O)c2ccc(Nc3cc4c(-c5ccc6c(cnn6CC(O)(C(F)(F)F)C(F)(F)F)c5C)nccc4cn3)cc2)n1 [Ex 745, N-(4,6-dimethoxypyrimidin-2-yl)-4-((5-(4-methyl-1-(3,3,3-trifluoro-2-hydroxy-2-(trifluoromethyl)propyl)-1H-indazol-5-yl)-2,6-naphthyridin-3-yl)amino)benzenesulfonamide] | pIC50 (CDK2/CCNE1; [11]): 6.60 to 7.60; pIC50 (CDK4/CCND3; [13]): < 6.60
 |  |  |  |  | < 6.60 | < 6.60 | Cc1c(-c2nccc3cnc(Nc4ccc(=O)n(C)n4)cc23)ccc2c1cnn2CC(C)(C)O [Ex 932, 6-((5-(1-(2-hydroxy-2-methylpropyl)-4-methyl-1H-indazol-5-yl)-2,6-naphthyridin-3-yl)amino)-2-methylpyridazin-3(2H)-one] | pIC50 (CDK2/CCNE1; [5]): > 7.60; pIC50 (CDK4/CCND3; [6]): 6.60 to 7.60
 |  |  |  |  | < 6.60 | < 6.60 | Cc1c(-c2nccc3cnc(Nc4ccc(S(=O)(=O)O)cc4)cc23)ccc2c1cnn2CC(C)(C)O [Ex 925, 4-((5-(1-(2-hydroxy-2-methylpropyl)-4-methyl-1H-indazol-5-yl)-2,6-naphthyridin-3-yl)amino)benzenesulfonic acid] | pIC50 (CDK2/CCNE1; [11]): 6.60 to 7.60; pIC50 (CDK4/CCND3; [13]): < 6.60
< 6.60 |  |  |  |  |  |  | Cc1cc2[nH]ncc2cc1-c1nccc2cnc(Nc3ccc(S(=O)(=O)CCO)cc3)cc12 [Ex 222, 2-((4-((5-(6-methyl-1H-indazol-5-yl)-2,6-naphthyridin-3-yl)amino)phenyl)sulfonyl)ethan-1-ol] | pIC50 (CDK2/CCNE1; [2]): 6.60 to 7.60; pIC50 (CDK6/CCND1; [3]): < 6.60; pIC50 (CDK4/CCND3; [4]): < 6.60
